The record followed here is patent US20080300243A1, “Amide Derivatives as Ion-Channel Ligands and Pharmaceutical Compositions and Methods of Using the Same” (priority 2005, published 2008).

A short description of data set [1]: Half-life in human liver microsomes (HLM). The format is in vitro ADME. To be noted: 1 μM compound, 0.78 mg/mL HLM, 37° C., NADPH; for half-life at 1 μM: human, human liver microsomes (HLM, HL101), pH 7.4. The procedure:
Test compounds (1 μM) were incubated with 3.3 mM MgCl2 and 0.78 mg/mL HLM (HL101) in 100 mM potassium phosphate buffer (pH 7.4) at 37° C. on the 96-deep well plate. The reaction mixture was split into two groups, a non-P450 and a P450 group. NADPH was only added to the reaction mixture of the P450 group. An aliquot of samples of P450 group was collected at 0, 10, 30, and 60 min time point, where 0 min time point indicated the time when NADPH was added into the reaction mixture of P450 group. An aliquot of samples of non-P450 group was collected at −10 and 65 min time point. Collected aliquots were extracted with acetonitrile solution containing an internal standard. The precipitated protein was spun down in centrifuge (2000 rpm, 15 min). The compound concentration in supernatant was measured by LC/MS/MS system.
The half-life value was obtained by plotting the natural logarithm of the peak area ratio of compounds/internal standard versus time. The slope of the line of best fit through the points yields the rate of metabolism (k). This was converted to a half-life value using following equations:
Exemplary compounds of the invention were tested (1 μM), and were incubated with 3.3 mM MgCl2 and 0.78 mg/mL HLM (HL101) in 100 mM potassium phosphate buffer (pH 7.4) at 37° C. on the 96-deep well plate. The reaction mixture was split into two groups, a non-P450 and a P450 group. NADPH was only added to the reaction mixture of the P450 group. An aliquot of samples of the P450 group was collected at 0, 10, 30, and 60 minute time points, where the 0 minute time point indicated the time when NADPH was added into the reaction mixture of the P450 group. An aliquot of samples of the non-P450 group was collected at −10 and 65 minute time points. Collected aliquots were extracted with an acetonitrile solution containing an internal standard. The precipitated protein was spun down in a centrifuge (2000 rpm, 15 rain). The compound concentration in supernatant was measured by LC/MS/MS system. The half-life value (T1/2) was obtained by plotting the natural logarithm of the peak area ratio of compounds/internal standard versus time. The slope of the line of best fit through the points yields the rate of metabolism (k). This was converted to a half-life value using following equations: Half-life=ln 2/k.
Background: Liver microsomes are vesicles of endoplasmic reticulum, rich in cytochrome P450 enzymes.

Data set [2] has as its target VR1 (Homo sapiens, UniProt Q8NER1). Briefly: Calcium uptake assay, low pH (proton) stimulus. In kind it is cell-based. Further details: expressed in transfected cells; host or cells: T-REx HEK 293 (Invitrogen), pcDNA5/TO vector. The conditions noted are these: HEK293, low pH agonist, HEK 293 cells expressing hVR1; for inhibition at 0.3 µM: 0.3 μM compound, read-out: Low pH % Inhib. @ 0.3 μM.

VR1, sequence (Q8NER1 whole entry): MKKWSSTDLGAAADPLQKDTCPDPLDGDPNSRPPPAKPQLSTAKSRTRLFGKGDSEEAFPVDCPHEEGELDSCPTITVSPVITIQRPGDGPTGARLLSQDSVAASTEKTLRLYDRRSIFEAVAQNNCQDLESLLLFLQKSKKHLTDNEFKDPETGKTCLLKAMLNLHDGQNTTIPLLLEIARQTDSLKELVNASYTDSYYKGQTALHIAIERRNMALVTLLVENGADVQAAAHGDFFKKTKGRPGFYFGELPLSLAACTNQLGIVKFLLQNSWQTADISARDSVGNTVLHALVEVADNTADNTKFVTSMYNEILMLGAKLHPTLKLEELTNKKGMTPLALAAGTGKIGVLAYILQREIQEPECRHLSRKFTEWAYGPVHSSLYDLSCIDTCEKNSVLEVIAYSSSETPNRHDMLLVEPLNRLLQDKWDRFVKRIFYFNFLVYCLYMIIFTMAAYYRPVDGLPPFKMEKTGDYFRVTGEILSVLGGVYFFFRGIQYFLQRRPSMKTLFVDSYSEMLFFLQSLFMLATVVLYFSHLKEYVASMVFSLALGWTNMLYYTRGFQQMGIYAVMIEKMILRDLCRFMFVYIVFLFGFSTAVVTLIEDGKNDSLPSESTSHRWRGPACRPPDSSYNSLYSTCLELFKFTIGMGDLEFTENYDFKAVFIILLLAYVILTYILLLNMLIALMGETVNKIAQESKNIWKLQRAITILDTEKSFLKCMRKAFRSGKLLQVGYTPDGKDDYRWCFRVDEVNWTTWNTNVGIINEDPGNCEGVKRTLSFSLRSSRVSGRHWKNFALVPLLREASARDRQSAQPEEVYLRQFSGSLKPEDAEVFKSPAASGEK

On to `CC(C)(C)C#Cc1ccc(C(=O)Nc2ccc3c(c2)OCCO3)cn1` [Compound 22], for which the half-life (usually the time needed for the level to fall by half in the phase considered) at 1 μM in data set [1] was 70.8 min. The inhibition at 0.3 µM in data set [2] came to 106%.
In the case of `CC(C)(C)C#Cc1ccc(C(=O)Nc2cccc3cnccc23)cc1` [Compound 31], the half-life at 1 μM in data set [1] is 24 min. In data set [2], the inhibition at 0.3 µM came to 108%.
In data set [1], `O=C(Nc1ccc2c(c1)OCCO2)c1ccc(/C=C/C(F)(F)F)cc1` [Compound 34] gave a half-life at 1 μM of 69 min. Also, the inhibition at 0.3 µM in data set [2] came to 97%.
`O=C(Nc1cnc2ccccc2c1)c1ccc(/C=C/C(F)(F)F)cc1` [Compound 36]: in data set [1], the half-life at 1 μM was 103 min. Also, in data set [2], the inhibition at 0.3 µM amounted to 54%.
In data set [1], `O=C(Nc1cnc2ccccc2c1)c1ccc(C#CC(F)(F)F)cc1` [Compound 46] showed a half-life at 1 μM of 1.2 min.
`O=C(Nc1cccc2cnccc12)c1ccc(C#CC2CC2)cc1` [Compound 48] showed a half-life at 1 μM in data set [1] of 19.8 min. The inhibition at 0.3 µM in data set [2] turned out to be 99%.
Turning to `Cc1nc2cc(NC(=O)c3ccc(C#CC(F)(F)F)cc3)ccc2s1` [Compound 52], the half-life at 1 μM in data set [1] is 1.8 min. Also, the inhibition at 0.3 µM in data set [2] stood at 101%.
In the case of `CC(C)(C)C#Cc1ccc(C(=O)Nc2cccc3cnccc23)cc1OCCN1CCOCC1` [Compound 60], the “Half Life” value in data set [1] came out at 21 min.
For `O=C(Nc1ccc2c(c1)OCCN2)c1ccc(/C=C/C(F)(F)F)cc1` [Compound 63], the “Half Life” value in data set [1] came out at 24 min.
For `CCOc1cc(C(=O)Nc2cccc3cnccc23)ccc1C#CC(C)(C)C` [Compound 65], in data set [1], the half-life at 1 μM was 25.2 min. In addition, the inhibition at 0.3 µM in data set [2] was determined as 109%.
Consider `Cc1cc(C#CC2CCCC2)ccc1C(=O)Nc1ccc2c(c1)OCC(CO)O2` (centres unmarked) [Compound 141], for which the inhibition at 0.3 µM in data set [2] came out at 87%.
For the molecule `O=C(Nc1ccc2c(c1)OCCO2)c1ccc(/C=C/C(F)(F)F)cc1F` [Compound 142], in data set [2], the inhibition at 0.3 µM came out at 70%.
On to `O=C(Nc1ccc2c(c1)OCCN2)c1ccc(C#CC2CC2)cc1F` [Compound 143], for which the inhibition at 0.3 µM in data set [2] is 100%.
Same read-out and setting: then `O=C(Nc1ccc2c(c1)OCCO2)c1ccc(C#CC2CC2)cc1F` [Compound 145], with 41%; and `CC(C)(C)C#Cc1ccc(C(=O)Nc2ccc3c(c2)OCCN3)c(Cl)c1` [Compound 146], with 93%.
Consider `O=C(Nc1ccc2c(c1)OCCN2)c1ccc(C#CC2CC2)cc1Cl` [Compound 147], for which the inhibition at 0.3 µM in data set [2] amounted to 88%.
Turning to `O=C(Nc1ccc2c(c1)OCCN2)c1ccc(/C=C/C(F)(F)F)cc1Cl` [Compound 148], the inhibition at 0.3 µM in data set [2] came out at 104%.
Turning to `O=C(Nc1ccc2c(c1)OCC(CO)O2)c1ccc(/C=C/C(F)(F)F)cc1F` (centres unmarked) [Compound 149], the inhibition at 0.3 µM in data set [2] was determined as 71%.
On to `O=C(Nc1ccc2c(c1)OCC(CO)O2)c1ccc(C#CC2CC2)cc1F` (centres unmarked) [Compound 150], for which the inhibition at 0.3 µM in data set [2] stood at 75%.
With `Cc1cc(C#CC2CC2)ccc1C(=O)Nc1ccc2c(c1)OCC(CO)O2` (centres unmarked) [Compound 151], the inhibition at 0.3 µM in data set [2] was 108%.
Still for that read-out and setting: next, `Cc1cc(C#CC2CC2)ccc1C(=O)Nc1ccc2c(c1)OCCO2` [Compound 152]: 73%; `Cc1cc(C#CC2CC2)ccc1C(=O)Nc1ccc2c(c1)OCCN2` [Compound 153]: 104%.
The same measure, in the same setting: next, `CC(C)(C)C#Cc1ccc(C(=O)Nc2ccc3c(c2)OCC(CO)O3)c(F)c1` (centres unmarked) [Compound 154]: 95%.
Regarding `CC(C)(C)C#Cc1ccc(C(=O)Nc2ccc3c(c2)OCCO3)c(F)c1` [Compound 155], the inhibition at 0.3 µM in data set [2] is 95%.
As for `O=C(Nc1ccc2c(c1)OCC(CO)O2)c1ccc(C#CC2CC2)cc1Cl` (centres unmarked) [Compound 156], the inhibition at 0.3 µM in data set [2] stood at 102%.
For `CC(C)(C)C#Cc1ccc(C(=O)Nc2cccc3cnccc23)c(Cl)c1` [Compound 161], the inhibition at 0.3 µM in data set [2] amounted to 95%.
With `Cc1nc2cc(NC(=O)c3ccc(C#CC(C)(C)C)cc3Cl)ccc2s1` [Compound 165], the inhibition at 0.3 µM in data set [2] came out at 107%.
The same measure, in the same setting: then `CC(C)(C)C#Cc1cc(F)c(C(=O)Nc2ccc3c(c2)OCC(CO)N3)c(F)c1` (centres unmarked) [Compound 168], with 104%; and `O=C(Nc1ccc2c(c1)OC[C@@H](CO)N2)c1ccc(C#CC2CC2)cc1F` [Compound 169], with 112%.
As for `O=C(Nc1ccc2c(c1)OC[C@H](CO)N2)c1ccc(C#CC2CC2)cc1F` [Compound 171], the inhibition at 0.3 µM in data set [2] came to 112%.
Take `Cc1nc2cc(NC(=O)c3ccc(C#CC(C)(C)C)cc3F)ccc2s1` [Compound 173]: in data set [2], the inhibition at 0.3 µM turned out to be 109%.
In the case of `CC(C)(C)C#Cc1ccc(C(=O)Nc2cnc3ccccc3c2)c(F)c1` [Compound 174], the inhibition at 0.3 µM in data set [2] was 97%.
`CC(C)(C)C#Cc1ccc(C(=O)Nc2cccc3cnccc23)c(F)c1` [Compound 175]: in data set [2], the inhibition at 0.3 µM is 95%.
With `Cc1nc2cc(NC(=O)c3ccc(/C=C/C(F)(F)F)cc3F)ccc2s1` [Compound 177], the inhibition at 0.3 µM in data set [2] worked out at 85%.
On the same count and under the same terms, then `O=C(Nc1cnc2ccccc2c1)c1ccc(/C=C/C(F)(F)F)cc1F` [Compound 178], with 9%; and `CC(C)(C)C#Cc1cc(F)c(C(=O)Nc2cnc3ccccc3c2)c(F)c1` [Compound 179], with 100%; and `Cc1nc2cc(NC(=O)c3c(F)cc(C#CC(C)(C)C)cc3F)ccc2s1` [Compound 180], with 99%.
Same read-out and setting: next, `CC(C)(C)C#Cc1ccc(C(=O)Nc2ccc3c(c2)OC[C@H](CO)N3)c(Cl)c1` [Compound 182]: 103%.
Still for that read-out and setting: then `CC(C)(C)C#Cc1ccc(C(=O)Nc2ccc3c(c2)OC[C@@H](CO)N3)c(Cl)c1` [Compound 183], with 98%; and `Cc1cc(/C=C/C(F)(F)F)ccc1C(=O)Nc1ccc2c(c1)OCC(CO)O2` (centres unmarked) [Compound 185], with 92%.
As for `Cc1cc(C#CC(C)(C)C)ccc1C(=O)Nc1ccc2c(c1)OCC(CO)O2` (centres unmarked) [Compound 186], the inhibition at 0.3 µM in data set [2] is 91%.
On to `Cc1cc(/C=C/C(F)(F)F)ccc1C(=O)Nc1ccc2c(c1)OCC(O)CN2` (centres unmarked) [Compound 189], for which the inhibition at 0.3 µM in data set [2] worked out at 87%.
On to `Cc1cc(/C=C/C(F)(F)F)ccc1C(=O)Nc1ccc2c(c1)OCCO2` [Compound 190], for which the inhibition at 0.3 µM in data set [2] was 87%.
For `CC(C)(C)C#Cc1cc(Cl)c(C(=O)Nc2ccc3c(c2)OCC(CO)O3)cc1F` (centres unmarked) [Compound 191], the inhibition at 0.3 µM in data set [2] was 83%.
In the case of `Cc1cc2c(NC(=O)c3ccc(/C=C/C(F)(F)F)cc3C)cccc2cn1` [Compound 196], in data set [2], the inhibition at 0.3 µM was found to be 86%.
For `Cc1cc(C#CC(C)(C)C)ccc1C(=O)Nc1cccc2c(Cl)cccc12` [Compound 199], the inhibition at 0.3 µM in data set [2] stood at 67%.
`Cc1cc(/C=C/C(F)(F)F)ccc1C(=O)Nc1cccc2c(Cl)nccc12` [Compound 200]: in data set [2], the inhibition at 0.3 µM came to 55%.
Turning to `Cc1cc(C#CC(C)(C)C)ccc1C(=O)Nc1cnc2[nH]ccc2c1` [Compound 212], the inhibition at 0.3 µM in data set [2] is 97%.
On to `Cc1cc(C#CC(C)(C)C)ccc1C(=O)Nc1ccc2c(c1)C(=O)NC2=O` [Compound 213], for which, in data set [2], the inhibition at 0.3 µM is 88%.
Consider `Cc1nc2cc(NC(=O)c3ccc(C#CC(C)(C)C)cc3C)ccc2[nH]1` [Compound 215], for which the inhibition at 0.3 µM in data set [2] came out at 86%.
As for `Cc1cc(C#CC(C)(C)C)ccc1C(=O)Nc1cnc2cc(CO)ccc2c1` [Compound 216], the inhibition at 0.3 µM in data set [2] came out at 31%.
Consider `Cc1cc(C#CC(C)(C)C)ccc1C(=O)Nc1ccc2[nH]c(=O)oc2c1` [Compound 217], for which, in data set [2], the inhibition at 0.3 µM is 59%.
Turning to `Cc1cc(C#CC(C)(C)C)ccc1C(=O)Nc1cnc2[nH]c(CO)nc2c1` [Compound 218], the inhibition at 0.3 µM in data set [2] turned out to be 6%.
On the same count and under the same terms, then `Cc1cc(/C=C/C(F)(F)F)ccc1C(=O)Nc1ccc2ncccc2c1` [Compound 222], with 82%; and `Cc1cc(/C=C/C(F)(F)F)ccc1C(=O)Nc1ccc2cccnc2c1` [Compound 224], with 82%; and `Cc1cc(/C=C/C(F)(F)F)ccc1C(=O)Nc1cnc2c(c1)CNCC2` [Compound 229], with 54%.
Same read-out and setting: then `Cc1cc(/C=C/C(F)(F)F)ccc1C(=O)Nc1cnc2[nH]ccc2c1` [Compound 230], with 99%.
As for `COc1cc(NC(=O)c2ccc(/C=C/C(C)C)cc2)cc(C(F)(F)F)c1` [Compound 240], the inhibition at 1 µM in data set [2] (1 μM compound, read-out: Low pH % Inhib. (at 1 μM)) turned out to be 75%.
